Blank lines part the entries; values can stand above or below the compound they belong to. Activity calls are given as the source filed them.
Columns and labels:
[1] = target: Cytochrome P450 2C9 (Homo sapiens, UniProt P11712)
[2] = target: Cytochrome P450 3A4 (Homo sapiens, UniProt P08684);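 also: CYP3A4 tested as one member of a cytochrome P450 panel screen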
[3] = target: T1, Cytochrome P450 2D6 (Homo sapiens, UniProt P10635);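 also: CYP2D6 member of a cytochrome P450 panel assay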
[4] = target: Cytochrome P450 2C19 (Homo sapiens, UniProt P33261); experiment: Cytochrome panel assay with activity outcomes. Panel member name: p450-cyp2c19 Compounds with AC50 equal or less than 10 uM are considered active; type: functional
Chain of Cytochrome P450 2C19 (P33261 whole entry): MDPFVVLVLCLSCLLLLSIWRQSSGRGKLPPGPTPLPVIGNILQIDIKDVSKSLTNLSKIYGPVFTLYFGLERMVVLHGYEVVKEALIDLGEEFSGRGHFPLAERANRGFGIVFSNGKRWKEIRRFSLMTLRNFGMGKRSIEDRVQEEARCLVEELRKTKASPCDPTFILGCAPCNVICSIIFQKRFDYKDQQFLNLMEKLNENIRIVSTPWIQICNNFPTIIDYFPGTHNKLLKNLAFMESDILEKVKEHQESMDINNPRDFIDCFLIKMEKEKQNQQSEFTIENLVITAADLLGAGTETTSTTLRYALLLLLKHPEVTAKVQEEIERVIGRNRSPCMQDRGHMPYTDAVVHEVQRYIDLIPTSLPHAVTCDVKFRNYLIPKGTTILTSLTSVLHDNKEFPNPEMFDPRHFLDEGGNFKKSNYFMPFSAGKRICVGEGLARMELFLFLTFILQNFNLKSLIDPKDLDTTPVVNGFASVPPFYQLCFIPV

[5] = target: Beta-galactosidase (Escherichia coli, UniProt Q8VNN2); experiment: PubChem AID 485352; type: functional
Chain of Beta-galactosidase (Q8VNN2 whole entry): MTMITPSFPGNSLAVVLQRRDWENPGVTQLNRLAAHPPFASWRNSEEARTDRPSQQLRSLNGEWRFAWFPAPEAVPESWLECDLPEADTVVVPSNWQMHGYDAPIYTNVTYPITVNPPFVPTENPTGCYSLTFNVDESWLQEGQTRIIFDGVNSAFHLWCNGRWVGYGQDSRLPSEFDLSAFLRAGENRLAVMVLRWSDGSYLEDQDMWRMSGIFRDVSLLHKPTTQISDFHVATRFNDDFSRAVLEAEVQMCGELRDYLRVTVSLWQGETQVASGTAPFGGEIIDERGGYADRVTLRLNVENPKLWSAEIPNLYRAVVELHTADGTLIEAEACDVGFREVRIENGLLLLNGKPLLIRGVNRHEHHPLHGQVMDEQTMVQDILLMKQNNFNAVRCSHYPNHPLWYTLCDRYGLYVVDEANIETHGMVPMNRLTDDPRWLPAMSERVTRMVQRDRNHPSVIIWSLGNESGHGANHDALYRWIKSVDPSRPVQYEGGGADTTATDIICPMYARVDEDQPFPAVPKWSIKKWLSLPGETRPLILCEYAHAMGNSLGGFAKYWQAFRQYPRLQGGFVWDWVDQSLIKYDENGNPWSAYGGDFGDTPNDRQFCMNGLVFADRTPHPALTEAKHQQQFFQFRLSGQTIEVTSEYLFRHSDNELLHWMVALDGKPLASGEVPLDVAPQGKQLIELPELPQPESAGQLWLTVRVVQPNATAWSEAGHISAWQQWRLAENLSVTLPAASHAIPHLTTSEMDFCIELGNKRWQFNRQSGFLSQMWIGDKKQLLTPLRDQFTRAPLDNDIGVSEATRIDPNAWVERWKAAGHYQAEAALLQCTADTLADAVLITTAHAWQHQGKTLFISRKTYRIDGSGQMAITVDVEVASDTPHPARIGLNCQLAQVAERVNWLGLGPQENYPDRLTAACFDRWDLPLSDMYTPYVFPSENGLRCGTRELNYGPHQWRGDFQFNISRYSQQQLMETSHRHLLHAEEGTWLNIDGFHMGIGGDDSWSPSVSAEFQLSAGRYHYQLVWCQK

[6] = target: T2, Type-1 angiotensin II receptor (Homo sapiens, UniProt P30556); experiment: antagonism of angiotensin II type 1 receptor – cell-based, uHTS hits, selectivity assay for APJ receptor antagonist project, dose response (AID 463214); type: functional;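 also: antagonist potency against angiotensin II stimulated AT1 response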
T2 sequence (P30556 whole entry): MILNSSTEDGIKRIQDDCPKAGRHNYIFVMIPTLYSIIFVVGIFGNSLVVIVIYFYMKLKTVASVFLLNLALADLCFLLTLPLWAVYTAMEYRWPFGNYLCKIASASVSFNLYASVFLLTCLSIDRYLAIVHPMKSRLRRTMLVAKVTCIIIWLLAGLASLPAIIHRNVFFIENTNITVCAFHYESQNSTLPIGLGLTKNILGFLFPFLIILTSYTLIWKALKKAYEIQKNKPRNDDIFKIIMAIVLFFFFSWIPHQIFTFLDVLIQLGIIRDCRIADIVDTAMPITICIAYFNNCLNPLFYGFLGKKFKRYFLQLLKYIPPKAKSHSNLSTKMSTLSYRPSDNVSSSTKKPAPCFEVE

[7] = target: 5-hydroxytryptamine receptor 5A (Homo sapiens, UniProt P47898); experiment: Counterscreen for agonists of OPRM1-OPRD1 heterodimerization: luminescence-based cell-based high throughput dose response assay to identify agonists of 5-hydroxytryptamine (serotonin) 5A receptor (HTR5A). [Related pubchem assays (depositor defined):AID504326, AID504355, AID504692, AID504904, AID504905]; type: functional
Chain of 5-hydroxytryptamine receptor 5A (P47898 whole entry): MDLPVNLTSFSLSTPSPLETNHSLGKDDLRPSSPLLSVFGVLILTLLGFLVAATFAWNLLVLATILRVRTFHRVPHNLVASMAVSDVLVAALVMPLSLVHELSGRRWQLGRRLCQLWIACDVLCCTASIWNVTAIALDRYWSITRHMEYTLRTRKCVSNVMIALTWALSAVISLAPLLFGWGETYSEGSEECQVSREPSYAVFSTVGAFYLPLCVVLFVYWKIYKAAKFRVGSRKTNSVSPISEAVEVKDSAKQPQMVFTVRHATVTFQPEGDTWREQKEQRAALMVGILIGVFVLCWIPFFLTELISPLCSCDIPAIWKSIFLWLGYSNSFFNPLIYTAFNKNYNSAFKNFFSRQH

[8] = target: Delta-type opioid receptor (Homo sapiens, UniProt P41143); experiment: Counterscreen for agonists of heterodimerization of the mu 1 (OPRM1) and delta 1 (OPRD1) opioid receptors: Luminescence-based cell-based high throughput dose response assay to identify agonists of OPRD1 homodimerization. [Related pubchem assays (depositor defined):AID504326, AID504355, AID504692, AID504904, AID504905]; type: functional
Chain of Delta-type opioid receptor (P41143 whole entry): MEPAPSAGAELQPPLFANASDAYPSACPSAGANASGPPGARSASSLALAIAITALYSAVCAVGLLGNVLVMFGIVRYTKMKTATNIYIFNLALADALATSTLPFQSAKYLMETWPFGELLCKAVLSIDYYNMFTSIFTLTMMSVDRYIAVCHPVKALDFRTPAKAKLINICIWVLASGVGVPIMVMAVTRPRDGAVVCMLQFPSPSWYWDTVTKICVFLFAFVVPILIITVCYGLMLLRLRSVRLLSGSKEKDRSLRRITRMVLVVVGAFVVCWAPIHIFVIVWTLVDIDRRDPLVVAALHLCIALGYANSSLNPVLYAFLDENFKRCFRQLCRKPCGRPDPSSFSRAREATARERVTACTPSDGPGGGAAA

[9] = target: Mu-type opioid receptor (Homo sapiens, UniProt P35372); experiment: Counterscreen for agonists of heterodimerization of the mu 1 (OPRM1) and delta 1 (OPRD1) opioid receptors: Luminescence-based cell-based high throughput dose response assay to identify agonists of OPRM1 homodimerization.; type: functional;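 also: U2OS cells expressing OPRM1 and beta-arrestin as split beta-galactosidase partners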
Chain of Mu-type opioid receptor (P35372 whole entry): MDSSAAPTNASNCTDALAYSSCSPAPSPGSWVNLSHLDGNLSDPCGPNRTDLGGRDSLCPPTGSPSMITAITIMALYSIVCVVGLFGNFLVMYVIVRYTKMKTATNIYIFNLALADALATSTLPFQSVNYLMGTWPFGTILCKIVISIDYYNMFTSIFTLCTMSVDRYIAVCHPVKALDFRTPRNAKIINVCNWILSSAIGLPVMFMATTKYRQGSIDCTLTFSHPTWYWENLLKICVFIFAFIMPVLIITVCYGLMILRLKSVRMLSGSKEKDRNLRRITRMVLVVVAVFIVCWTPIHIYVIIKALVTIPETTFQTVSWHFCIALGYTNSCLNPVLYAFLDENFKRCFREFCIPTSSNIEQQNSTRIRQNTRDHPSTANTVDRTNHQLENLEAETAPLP

[10] = target: T3, Heat shock factor protein 1 (Mus musculus, UniProt P38532); experiment: enhancement of HSF1-driven luciferase signal – cell-based, NIH3T3, luminescence, dose retest, confirmation (AID 435004); type: functional;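 also: stress induced by proteasome inhibitor MG132 added 30 min after compound; luciferase reporter driven by HSF1 response element in NIH3T3 cells; actives raise luminescence as potentiators of the MG132 stress response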
T3 sequence (P38532 whole entry): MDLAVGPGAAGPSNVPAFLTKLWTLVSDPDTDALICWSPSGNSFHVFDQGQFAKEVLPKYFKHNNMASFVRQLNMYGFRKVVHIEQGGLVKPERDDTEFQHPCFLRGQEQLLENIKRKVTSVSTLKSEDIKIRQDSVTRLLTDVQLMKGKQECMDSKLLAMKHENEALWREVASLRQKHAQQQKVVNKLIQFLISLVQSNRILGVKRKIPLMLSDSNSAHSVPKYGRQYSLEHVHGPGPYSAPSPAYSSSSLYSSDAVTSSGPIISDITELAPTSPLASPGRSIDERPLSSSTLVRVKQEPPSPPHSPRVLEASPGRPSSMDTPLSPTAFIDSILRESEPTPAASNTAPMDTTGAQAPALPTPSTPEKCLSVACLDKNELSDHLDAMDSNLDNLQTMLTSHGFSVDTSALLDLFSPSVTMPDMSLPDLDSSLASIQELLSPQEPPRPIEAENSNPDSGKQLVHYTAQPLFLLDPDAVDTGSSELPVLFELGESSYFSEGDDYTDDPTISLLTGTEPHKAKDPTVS

[11] = target: T4, Ubiquitin-conjugating enzyme E2 N (Homo sapiens, UniProt P61088); type: functional
T4 sequence (P61088 whole entry): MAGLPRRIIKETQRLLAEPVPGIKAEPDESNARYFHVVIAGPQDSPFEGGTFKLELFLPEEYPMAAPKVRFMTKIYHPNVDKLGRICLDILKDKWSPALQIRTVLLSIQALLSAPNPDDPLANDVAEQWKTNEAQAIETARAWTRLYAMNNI

[12] = Trypanosoma cruzi growth suppression in host cells – NIH3T3 host cells, beta-gal luminescence, confirmation (AID 2044); type: functional, cell-based;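 also: intracellular parasites grown in NIH/3T3 mouse fibroblasts as host cells; luminescent beta-galactosidase reporter signal from transgenic T. cruzi replicating inside host cells; inhibitors lower the luminescence signal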
[13] = NIH3T3 cell viability loss – ATP luminescence, mouse fibroblasts, counter-screen, dose response (AID 2010); type: functional, cell-based;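 also: cells exposed to compound for about 90 hours before reading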
[14] = target: T5, DNA repair and recombination protein RAD54-like (Homo sapiens, UniProt Q92698); experiment: RAD54 Holliday junction migration blockers – biochemical, fluorescence, cherry-picked samples, dose series, confirmation (AID 651657); type: functional
T5 sequence (Q92698 whole entry): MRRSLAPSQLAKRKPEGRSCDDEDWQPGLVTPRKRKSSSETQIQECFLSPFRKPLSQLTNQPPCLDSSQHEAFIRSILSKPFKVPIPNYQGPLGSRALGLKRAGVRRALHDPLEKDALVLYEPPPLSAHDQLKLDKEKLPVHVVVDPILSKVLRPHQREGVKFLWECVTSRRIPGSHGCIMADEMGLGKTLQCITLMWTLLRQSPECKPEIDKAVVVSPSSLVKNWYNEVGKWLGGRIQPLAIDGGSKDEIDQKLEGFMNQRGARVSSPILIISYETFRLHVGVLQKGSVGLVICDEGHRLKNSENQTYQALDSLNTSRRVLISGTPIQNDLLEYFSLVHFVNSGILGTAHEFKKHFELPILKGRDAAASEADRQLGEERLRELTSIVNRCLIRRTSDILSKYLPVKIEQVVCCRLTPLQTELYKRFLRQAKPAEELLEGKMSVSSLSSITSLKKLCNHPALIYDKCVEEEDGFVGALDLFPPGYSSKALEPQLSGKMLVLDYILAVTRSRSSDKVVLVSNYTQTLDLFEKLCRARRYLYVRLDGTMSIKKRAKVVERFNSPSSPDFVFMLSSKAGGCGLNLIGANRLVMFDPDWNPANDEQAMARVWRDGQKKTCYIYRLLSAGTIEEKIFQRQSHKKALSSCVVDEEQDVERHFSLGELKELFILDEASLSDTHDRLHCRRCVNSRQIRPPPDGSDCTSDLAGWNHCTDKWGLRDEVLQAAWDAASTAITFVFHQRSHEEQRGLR

[15] = target: T6, Bcl-2-related protein A1 (Mus musculus, UniProt Q07440); type: functional;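 also: confirmatory dose–response counterscreen on Bfl-1, used to check hits from a UBC13 polyubiquitin inhibitor campaign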
T6 sequence (Q07440 whole entry): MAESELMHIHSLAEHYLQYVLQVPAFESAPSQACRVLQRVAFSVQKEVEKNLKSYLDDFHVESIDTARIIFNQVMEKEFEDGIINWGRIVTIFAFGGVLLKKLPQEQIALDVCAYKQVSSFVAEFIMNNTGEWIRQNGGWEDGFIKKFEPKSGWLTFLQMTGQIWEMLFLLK

[16] = target: T4, Ubiquitin-conjugating enzyme E2 N; type: functional; remark: listed apart in the source
[17] = target: T7, Short transient receptor potential channel 4 (Mus musculus, UniProt Q9QUQ5); experiment: calcium entry via TRPC4 opening agents – cell-based, HEK293 TRPC4/mu-opioid, Fluo-4 calcium, dose response (AID 434937); type: functional
T7 sequence (Q9QUQ5 whole entry): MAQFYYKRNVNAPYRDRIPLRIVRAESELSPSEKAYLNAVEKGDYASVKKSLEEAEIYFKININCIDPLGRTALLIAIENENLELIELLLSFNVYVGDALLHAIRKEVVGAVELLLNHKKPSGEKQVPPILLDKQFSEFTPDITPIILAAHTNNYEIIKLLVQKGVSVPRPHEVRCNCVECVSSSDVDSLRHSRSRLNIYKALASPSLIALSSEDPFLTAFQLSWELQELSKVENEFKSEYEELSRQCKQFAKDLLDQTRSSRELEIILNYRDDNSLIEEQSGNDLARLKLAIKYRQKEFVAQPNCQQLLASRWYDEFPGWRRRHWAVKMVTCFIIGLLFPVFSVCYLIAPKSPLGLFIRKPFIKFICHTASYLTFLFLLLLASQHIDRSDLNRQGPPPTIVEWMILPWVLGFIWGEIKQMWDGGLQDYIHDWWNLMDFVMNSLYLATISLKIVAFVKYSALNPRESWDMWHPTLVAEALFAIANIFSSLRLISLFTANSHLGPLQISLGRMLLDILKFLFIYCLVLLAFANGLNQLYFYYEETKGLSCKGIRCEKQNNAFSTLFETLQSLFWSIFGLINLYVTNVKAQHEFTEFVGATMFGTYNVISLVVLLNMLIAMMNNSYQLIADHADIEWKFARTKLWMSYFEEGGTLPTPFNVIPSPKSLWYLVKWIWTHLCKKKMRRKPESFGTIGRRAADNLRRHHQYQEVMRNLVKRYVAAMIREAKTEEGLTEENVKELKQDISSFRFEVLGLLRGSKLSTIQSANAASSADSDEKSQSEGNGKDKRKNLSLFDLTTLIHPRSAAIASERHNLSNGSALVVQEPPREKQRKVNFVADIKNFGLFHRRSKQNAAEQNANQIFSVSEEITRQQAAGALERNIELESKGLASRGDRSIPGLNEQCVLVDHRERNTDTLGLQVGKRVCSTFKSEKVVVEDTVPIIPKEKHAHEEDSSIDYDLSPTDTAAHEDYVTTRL

[18] = tested on: HEK293; experiment: cells; details: Homo sapiens
[19] = tested on: HEK293; experiment: cells; details: Homo sapiens; remark: listed apart in the source
[20] = target: T1, Cytochrome P450 2D6; remark: listed apart in the source
[21] = off-target signal loss in HeLa-CEM21 co-culture – HeLa F-luc CTL cells, cherry-picked, counter-screen for HIV-1 Env fusion inhibitor project, dose response (AID 652040); type: functional, cell-based;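 also: potency for signal decrease marking cytotoxic or nonspecific inhibition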
[22] = blockers of HIV-1 ZM109 envelope-driven cell-cell fusion – HeLa effector, CEM target cells, luciferase, cherry-pick, dose response (AID 652058); type: functional, cell-based;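 also: luciferase signal from HIV-1 Env mediated cell-cell fusion of effector and target cells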
[23] = HIV-1 AD8 envelope cell-cell fusion blockers – cherry-pick, dose response (AID 652062); type: functional, cell-based;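 also: luciferase signal from cell-cell fusion driven by HIV-1 clade B AD8 Env; potency is for inhibitors of fusion seen as a drop in luminescence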
[24] = blockers of HIV-1 envelope-mediated cell-cell fusion – cherry-pick, dose response (AID 652057); type: functional, cell-based

Chain of Cytochrome P450 3A4 (P08684 whole entry): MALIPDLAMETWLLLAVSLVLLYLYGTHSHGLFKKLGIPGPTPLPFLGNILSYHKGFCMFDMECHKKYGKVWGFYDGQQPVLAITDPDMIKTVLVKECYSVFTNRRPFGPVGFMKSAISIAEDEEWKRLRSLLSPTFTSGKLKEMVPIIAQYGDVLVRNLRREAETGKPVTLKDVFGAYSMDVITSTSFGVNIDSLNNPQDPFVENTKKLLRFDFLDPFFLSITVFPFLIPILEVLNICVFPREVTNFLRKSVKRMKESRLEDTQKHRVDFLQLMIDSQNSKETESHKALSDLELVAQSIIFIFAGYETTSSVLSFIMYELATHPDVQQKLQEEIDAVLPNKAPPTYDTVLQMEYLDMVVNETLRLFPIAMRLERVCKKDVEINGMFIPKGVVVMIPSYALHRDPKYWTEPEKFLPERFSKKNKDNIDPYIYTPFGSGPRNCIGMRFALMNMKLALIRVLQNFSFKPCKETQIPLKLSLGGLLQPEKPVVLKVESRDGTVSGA
T1 sequence (P10635 whole entry): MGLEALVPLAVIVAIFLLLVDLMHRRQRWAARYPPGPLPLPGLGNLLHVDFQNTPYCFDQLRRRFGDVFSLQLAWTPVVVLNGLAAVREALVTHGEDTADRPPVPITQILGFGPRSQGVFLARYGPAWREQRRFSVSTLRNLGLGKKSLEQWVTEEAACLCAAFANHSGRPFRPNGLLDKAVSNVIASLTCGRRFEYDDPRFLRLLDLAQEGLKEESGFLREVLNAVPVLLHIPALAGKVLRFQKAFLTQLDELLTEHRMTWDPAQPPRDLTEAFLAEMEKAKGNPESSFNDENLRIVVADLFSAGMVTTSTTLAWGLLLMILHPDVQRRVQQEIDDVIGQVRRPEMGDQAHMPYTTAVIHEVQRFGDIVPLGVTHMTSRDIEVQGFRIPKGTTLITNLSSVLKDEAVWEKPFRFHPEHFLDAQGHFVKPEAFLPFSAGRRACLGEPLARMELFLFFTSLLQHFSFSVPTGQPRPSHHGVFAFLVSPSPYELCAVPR
Chain of Cytochrome P450 2C9 (P11712 whole entry): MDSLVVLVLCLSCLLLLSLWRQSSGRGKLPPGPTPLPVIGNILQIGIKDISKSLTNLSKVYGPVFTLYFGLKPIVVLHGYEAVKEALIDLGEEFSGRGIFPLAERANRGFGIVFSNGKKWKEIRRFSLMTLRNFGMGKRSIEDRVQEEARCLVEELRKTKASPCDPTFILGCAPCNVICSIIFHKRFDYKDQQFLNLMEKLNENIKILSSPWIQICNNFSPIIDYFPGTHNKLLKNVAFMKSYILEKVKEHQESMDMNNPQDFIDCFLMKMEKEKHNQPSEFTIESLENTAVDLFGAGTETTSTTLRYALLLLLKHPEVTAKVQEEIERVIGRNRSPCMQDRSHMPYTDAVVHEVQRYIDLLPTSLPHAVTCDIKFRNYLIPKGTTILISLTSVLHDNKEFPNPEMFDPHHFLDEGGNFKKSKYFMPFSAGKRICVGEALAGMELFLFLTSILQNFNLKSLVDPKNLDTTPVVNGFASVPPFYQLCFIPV

- EC50 [5]: > 40 µM (inactive)
- IC50 [6]: 18 µM (active)
SMILES: CC(=O)Nc1cccc(C(=O)OCC(=O)c2ccc(S(=O)(=O)N3CCCCC3)cc2)c1

- EC50 [7]: > 92.5 µM (inactive)
- EC50 [8]: > 92.5 µM (inactive)
- EC50 [9]: 70.5 µM (inactive)
- EC50 [10]: > 260 µM (inactive)
SMILES: COc1ccc(-n2cc(CNCc3cccnc3)c(-c3cccc(F)c3)n2)cc1

- AC50 [2]: inconclusive
- AC50 [1]: inconclusive
- AC50 ([4]; read-out: AC50): 0.0316 µM (inconclusive)
SMILES: N=c1ccn2c(n1)O[C@@H]1[C@@H](O)[C@H](CO)O[C@H]12

Further lines, the compound ahead of its results:

SMILES: NC(=O)c1ccccc1NC(=O)/C=C/c1cccc(Cl)c1
- AC50 [1]: inconclusive

SMILES: NCC(O)CN.Oc1c(Cl)c(Cl)c(Cl)c(Cl)c1Cl
- AC50 [2]: inactive
- AC50 [3]: inactive
- AC50 [4]: inactive

SMILES: COc1cc2nc(NCCCN3CCN(C)CC3)n3nc(-c4ccccc4)nc3c2cc1OC
- IC50 [11]: 17.6 µM (active)
- EC50 [12]: 1.87 µM (active)
- EC50 [13]: > 60 µM (not active)
- AC50 [14]: 2.98 µM (active)
- IC50 [15]: > 20 µM (inactive)
- IC50 [16]: 6.25 µM (active)

SMILES: Cn1c(CN2CCN(c3cccc(Cl)c3)CC2)nc2ccccc21
- EC50 [7]: > 92.5 µM (inactive)
- EC50 [17]: 2.11 µM (active)
- EC50 [8]: > 92.5 µM (inactive)
- EC50 [9]: 15.7 µM (inactive)

SMILES: CN(C)S(=O)(=O)n1cc(/C=C(\NC(=O)c2ccccc2Cl)C(=O)N2CCCC2)c2ccccc21
- EC50 [18]: > 59.6 µM (inactive)
- EC50 [19]: > 59.6 µM (inactive)

SMILES: Cc1ccccc1-c1cc(Nc2ccccc2)ncn1
- AC50 [2]: inconclusive
- AC50 [20]: 39.8 µM (inconclusive)

SMILES: CC1CCC(NC(=O)CCn2ccc3cc(S(=O)(=O)N4CCCC4)ccc32)CC1 (stereo not drawn)
- AC50 [21]: 5.19 µM (active)
- AC50 [22]: 0.999 µM (active)
- AC50 [23]: 4.28 µM (active)
- EC50 [18]: > 59.6 µM (inactive)
- EC50 [19]: > 59.6 µM (inactive)
- AC50 [24]: 3.53 µM (active)

— ChEMBL document CHEMBL1201862, “PubChem BioAssay data set” (2004)
